Converted amounts (≈) assume the structure as drawn.
Assay: physchem
Conditions: 25 °C, water

Row | Structure (SMILES) | solubility [µg/mL]
1 | CC(C)CCC[C@@H](C)[C@H]1CC[C@H]2[C@@H]3CC=C4C[C@@H](O)CC[C@]4(C)[C@H]3CC[C@]12C [cholesterol] | 0.1 (≈ 0.259 µM)
2 | CSc1ccc(-c2nn(Cc3ccccc3)c(=O)cc2-c2ccc(Cl)cc2)cc1 [Compound A, 2-benzyl-5-(4-chlorophenyl)-6-[4-(methylthio)phenyl]-2H-pyridazin-3-one] | 0.01 (≈ 0.0239 µM)
3 | CCCCC(=O)O[C@]1(C(=O)COC(C)=O)CC[C@H]2[C@@H]3CCC4=CC(=O)C=C[C@]4(C)[C@H]3[C@@H](O)C[C@@]21C [prednisolone valerate acetate] | 4
4 | O=C(Nc1cccc2c(=O)cc(-c3nnn[nH]3)oc12)c1ccc(OCCCCc2ccccc2)cc1 [pranlukast] | 0.9 (≈ 1.87 µM)
